Measurements published in PubChem BioAssay AID588780 (Sanford-Burnham Center for Chemical Genomics, 2011).
Calls of active or inactive are those of the source.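 Rule for the calls: active = compounds whose fitted half-maximal concentration in the cell-protection dose series is at or below a set limit; inactive = the rest.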

These compounds were tested on H9c2 cardiomyocytes, 2-deoxyglucose stress, ATP luminescence, 2 h (assay: H9c2 cell survival under 2-deoxyglucose stress – uHTS hits, dose response (AID 588780)).
In the case of `CC1(C)Cc2c(c(N3CCOCC3)nc3sc4c(NN)ncnc4c23)CS1`, the IC50 is reported as > 79 µM (inactive). With `CC1(C)Cc2c(C#N)c(SCc3nc4ccccc4[nH]3)nc(N3CCOCC3)c2CO1` the IC50 was > 79 µM (inactive). For `COc1ccc(-c2cc(NC=O)c3ncc(-c4ccccc4)n3c2)cc1OC`, the IC50 was > 79 µM (inactive). In the case of `COC(=O)c1cc(C(=O)OCC(=O)N2c3ccccc3NC(=O)C2(C)C)cc([N+](=O)[O-])c1`, the IC50 is reported as 39 µM (inactive). In the case of `N#C/C(=C1\CCCN1)c1nc2ccccc2c(=O)[nH]1`, the IC50 is reported as > 79 µM (inactive). In the case of `COc1ccc(CNc2nn3c(-c4cccc(C(=O)N(C)C)c4)cnc3s2)cc1`, the IC50 is reported as > 79 µM (inactive). With `COc1nnc(-c2ccc(C)c(S(=O)(=O)NCCO)c2)c2ccccc12` the IC50 was > 79 µM (inactive). `COc1cc(NS(=O)(=O)c2ccc3ccccc3c2)c2ncccc2c1` showed an IC50 of 18.2 µM. `CCc1ccc(NC(=O)CSc2ccc(-c3ccccn3)nn2)cc1` was tested, and the IC50 was > 79 µM (inactive). Compound `Cc1sc2nc(CSCC(=O)N(CCC#N)c3ccccc3F)[nH]c(=O)c2c1C` has an IC50 of 27.9 µM. `COc1ccc(OC)c(C(=O)COC(=O)c2ccc([N+](=O)[O-])o2)c1` was tested, and the IC50 was > 79 µM (inactive). In the case of `Cc1cccc(C(=O)NC(C(=O)Nc2nc(-c3ccccn3)cs2)C(C)C)c1` (stereo not drawn), the IC50 is reported as 12.7 µM. With `COc1cc(C(=O)Nc2nc(OC)c(-c3ccccc3)c(OC)n2)cc(OC)c1OC` the IC50 was > 79 µM (inactive). With `CC1Nc2ncnc(N3CCN(c4ccccc4)CC3)c2N(Cc2ccc(Br)cc2)C1=O` (stereo not drawn) the IC50 was > 79 µM (inactive). In the case of `CC(=O)Nc1cc(C)nn1-c1nc2ccccc2s1`, the IC50 is reported as 18 µM. With `O=C(COC(=O)CCc1nc2ccccc2c(=O)[nH]1)Nc1ccc2c(c1)OCO2` the IC50 was > 79 µM (inactive). `Cc1ccc(C)c(NC(=O)C(Sc2ncnc3ccccc23)c2ccccc2)c1` (stereo not drawn) was tested, and the IC50 was > 79 µM (inactive). In the case of `CC(=O)n1cc(/C=N/NC(=O)c2sc(C)nc2C)c2ccccc21`, the IC50 is reported as > 79 µM (inactive). With `COc1cccc(-c2cnc3c(NC=O)cc(-c4cccc(C(=O)N(C)C)c4)cn23)c1` the IC50 was 12.3 µM. With `Cc1nn2c(-c3cccc(NC(=O)c4ccco4)c3)nnc2c2ccccc12` the IC50 was > 79 µM (inactive). `CC(Oc1cccc(Cl)c1)C(=O)Nc1nc(-c2ccccn2)cs1` (stereo not drawn) was tested, and the IC50 was 44.4 µM (inactive). Compound `Cc1ccc(CN(C(=O)CNC(=O)c2cccs2)C(C(=O)NCC2CCCO2)c2ccccc2)cc1` (stereo not drawn) has an IC50 of 14.1 µM. `O=C(NC1CCCCC1)C(c1ccc2ncccc2c1)N(Cc1ccccc1)C(=O)c1ccc2c(c1)OCCO2` (stereo not drawn) was tested, and the IC50 was 32 µM (inactive). `O=C1COc2ccc(-c3n[nH]c(=O)c4ccccc34)cc2N1` was tested, and the IC50 was > 79 µM (inactive). For `COc1cc(/C=C/C(=O)OCC(=O)N2c3ccccc3NC(=O)C2(C)C)cc(OC)c1OC`, the IC50 was > 79 µM (inactive). For `CCOC(=O)C1CCN(c2cc3c(cc2NC(=O)c2ccccc2Br)n(C)c(=O)n3C)CC1`, the IC50 was 45.5 µM (inactive). In the case of `Cc1ccc(-c2n[nH]c(=O)c3ccccc23)cc1S(=O)(=O)NCCN1CCOCC1`, the IC50 is reported as > 79 µM (inactive). In the case of `CCN1C(=O)[C@H]2[C@@H](c3ccc(-c4ccc(C(C)=O)cc4)cc3)N[C@@](C)(C(=O)OC)[C@H]2C1=O`, the IC50 is reported as > 79 µM (inactive). `O=C(CCc1nc2ccccc2c(=O)[nH]1)N1CCN(S(=O)(=O)c2cc(Cl)ccc2Cl)CC1` was tested, and the IC50 was > 79 µM (inactive). In the case of `C/C(=N\NC(=O)c1cccnc1)c1ccc(OC2OCCOC2Oc2ccc(/C(C)=N/NC(=O)c3cccnc3)cc2)cc1` (stereo not drawn), the IC50 is reported as 13.1 µM. With `Cc1ccccc1NP(=O)(Oc1ccccc1F)Oc1ccccc1F` the IC50 was 24.8 µM. For `O=C(CN1CCN(S(=O)(=O)c2ccc(Br)cc2)CC1)c1ccc(O)c(O)c1`, the IC50 was 19.8 µM. Compound `O=C(C[C@@H]1C/C=C/CC[C@@H](Cc2ccc(F)cc2)C(=O)O[C@@H](c2ccccc2)CNC1=O)NCCO` has an IC50 of 15.1 µM. With `O=C(Cn1[nH]c(=O)c2ccccc2c1=O)NCC1COc2ccccc2O1` (stereo not drawn) the IC50 was > 79 µM (inactive). `N#CCCN(C(=O)COC(=O)CCc1nc2ccccc2c(=O)[nH]1)c1ccccc1F` was tested, and the IC50 was > 79 µM (inactive). In the case of `COc1ccc(Cl)cc1NC(=O)CN(C)C(=O)CCc1nc2ccccc2c(=O)[nH]1`, the IC50 is reported as > 79 µM (inactive). `CCOc1ccc2ccccc2c1C(=O)N[C@@H]1C(=O)N2[C@@H]1SC(C)(C)[C@@H]2C(=O)O` was tested, and the IC50 was 47.1 µM (inactive). `CCN(CC(=O)Nc1cc(Cl)ccc1C)C(=O)CCc1nc2ccccc2c(=O)[nH]1` was tested, and the IC50 was > 79 µM (inactive). In the case of `NS(=O)(=O)c1cccc(NC(=O)COC(=O)Cc2n[nH]c(=O)c3ccccc23)c1`, the IC50 is reported as > 79 µM (inactive). `CCOc1ccc(-n2c(C)c(C(C)=O)c3cc(OC(C)=O)ccc32)cc1` was tested, and the IC50 was > 79 µM (inactive). `CCOCc1c(C(=O)NC2=Nc3ccccc3NC(CC)=C2C(=O)OCC)oc2ccccc12` was tested, and the IC50 was > 79 µM (inactive). For `N#CCCSc1ccccc1NC(=O)c1cc(=O)c2ccccc2o1`, the IC50 was > 79 µM (inactive). In the case of `COC(=O)c1c(C)[nH]c(O)c1C=Nc1ccc(Oc2ccccc2)cc1`, the IC50 is reported as > 79 µM (inactive). With `O=c1[nH]c2c(c3c1CCCC3)CCCC2` the IC50 was > 79 µM (inactive). In the case of `CCOc1ccc(NC(=O)c2cc3c(C)nc4ccccc4c3o2)cc1`, the IC50 is reported as 17.1 µM. `COc1ccc(-c2cc(NC(C)=O)c3ncc(-c4cccc(C(C)=O)c4)n3c2)cc1OC` gave an IC50 of 7.56 µM. `CCOC(=O)c1ccc(-c2ccc3ncnc(NCc4csc(C)n4)c3c2)o1` was tested, and the IC50 was > 79 µM (inactive). `O=C(CNC(=O)c1ccccc1F)N/N=C/c1cc(Br)ccc1OC(=O)/C=C/c1ccco1` was tested, and the IC50 was > 79 µM (inactive). In the case of `COc1cccc(/C=N/NC(=O)c2oc3nc(-c4ccccc4)cc(-c4ccco4)c3c2N)c1`, the IC50 is reported as > 79 µM (inactive). `CCc1nc2ccc(C(=O)Nc3cc(-c4ccccc4)ccc3OC)cn2c1N(C)Cc1nccs1` showed an IC50 of 9.62 µM. In the case of `COc1cc(OC)cc(C(=O)NNC(=O)c2ccccn2)c1`, the IC50 is reported as > 79 µM (inactive). `CCCc1cc2c(cc1NC(=O)c1ccc(Br)cc1)OCO2` showed an IC50 of 29.3 µM. Work on `Clc1ccccc1-c1nc(N/N=C/c2cccnc2)c2ccccc2n1` yielded an IC50 of 8.37 µM. For `Cc1ccc(-c2n[nH]c(=O)c3ccccc23)cc1S(=O)(=O)Nc1ccccc1`, the IC50 was > 79 µM (inactive). `C/C(=N\NC(=O)c1nnn(-c2nonc2N)c1CSc1ccc(C)cc1)c1cccnc1` was tested, and the IC50 was > 79 µM (inactive). For `COc1ccc(CCNC(=O)C(=O)NCC2CCCN2S(=O)(=O)c2ccccc2)cc1OC` (stereo not drawn), the IC50 was > 79 µM (inactive). In the case of `COc1cc(OC)cc(C(=O)Nc2ccc(-c3nc4ccccc4o3)cc2)c1`, the IC50 is reported as > 79 µM (inactive). With `CCOc1cc(/C=N/NC(N)=O)cc(Br)c1OCC(=O)Nc1cccc2ccccc12` the IC50 was > 79 µM (inactive). For `COc1ccccc1NC(=O)c1cc(-c2ccc(OC)c(OC)c2)nc2ccccc12`, the IC50 was > 79 µM (inactive). With `CC(C)C1Nc2ccc(C(=O)N3CCN(c4ccccn4)CC3)cc2NC1=O` (stereo not drawn) the IC50 was > 79 µM (inactive). In the case of `CCC(=O)N1CCN(c2ccccc2NC(=O)c2ccc(-c3cccc([N+](=O)[O-])c3)o2)CC1`, the IC50 is reported as > 79 µM (inactive). `COc1ccc(-c2cc(NC=O)c3ncc(-c4ccc(C(C)=O)cc4)n3c2)cn1` was tested, and the IC50 was > 79 µM (inactive). `O=C(CSc1nnc(-c2cccnc2)o1)c1cc2ccccc2oc1=O` was tested, and the IC50 was 67 µM (inactive). `CCOc1ccc2[nH]c(=O)c(CN(Cc3nnnn3Cc3ccco3)C3CCCCC3)cc2c1` was tested, and the IC50 was > 79 µM (inactive). In the case of `O=C(N/N=C/c1cn(-c2ccccc2)nc1-c1cccnc1)c1cccnc1`, the IC50 is reported as > 79 µM (inactive). In the case of `Cn1c(NCc2ccco2)nc2c1c(=O)n(Cc1ccc(Cl)cc1)c(=O)n2C`, the IC50 is reported as 31.3 µM (inactive). `C[C@H](NC(=O)c1nc[nH]c1C(=O)NCC(=O)OCc1ccccc1)c1ccccc1` showed an IC50 of 13.6 µM. With `O=c1[nH]c(NCc2ccccc2)nc2c1CCCC2` the IC50 was > 79 µM (inactive). `N#C/C(=C\c1cn(-c2ccccc2)nc1-c1cccnc1)c1nnc2n1CCCCC2` showed an IC50 of 21.7 µM. In the case of `COc1c(C)cc(Br)cc1C(=O)Nc1cccc(-c2nc3ncccc3o2)c1`, the IC50 is reported as > 79 µM (inactive). For `CN(CC(=O)Nc1ccccc1Br)C(=O)Cn1[nH]c(=O)c2ccccc2c1=O`, the IC50 was > 79 µM (inactive). `CCOC(=O)Cc1csc(SCc2cc(=O)oc3cc(O)ccc23)n1` was tested, and the IC50 was 51.9 µM (inactive). For `CC1CCN(C(=O)COC(=O)c2n[nH]c(=O)c3ccccc23)CC1`, the IC50 was 47.8 µM (inactive). For `Cc1ccc(N=Cc2cc(Cl)cc(Cl)c2O)nc1`, the IC50 was > 79 µM (inactive). With `CCOC(=O)c1cc(-c2ccc(/C=N\n3cnnc3)o2)ccc1Cl` the IC50 was > 79 µM (inactive). With `O=c1[nH]c2cccc(Cl)c2c2ccccc12` the IC50 was > 79 µM (inactive). `O=C1OCCN1C(=O)[C@H]1[C@H](c2ccc([N+](=O)[O-])cc2)C(c2cccc(Cl)c2)=NN1c1ccc(Br)cc1` was tested, and the IC50 was > 79 µM (inactive). For `O=C(CSc1nc2ccccc2c(=O)[nH]1)N1CCCCCC1`, the IC50 was > 79 µM (inactive). `N#CCCN(C(=O)COC(=O)CCc1nc2ccccc2c(=O)[nH]1)c1ccc(F)cc1` was tested, and the IC50 was > 79 µM (inactive). With `CCCCN(Cc1nc2ccccc2c(=O)[nH]1)C(=O)CN1C(=O)NC2(CCCCC2)C1=O` the IC50 was > 79 µM (inactive). In the case of `O=C/C(=C\Nc1ccccn1)c1nc2cc(Cl)ccc2o1`, the IC50 is reported as > 79 µM (inactive). For `CC(C)CCN(C(=O)CNC(=O)c1ccco1)C(C(=O)NC1CCCCC1)c1ccco1` (stereo not drawn), the IC50 was 37.5 µM (inactive). For `O=c1[nH]c(CSc2nnc(-c3cccnc3)n2C2CCCCC2)nc2ccccc12`, the IC50 was > 79 µM (inactive). For `COc1ccc(-c2nc(NC(=O)c3ccc(OCC(=O)N4CCOCC4)c(OC)c3)sc2C)cc1`, the IC50 was > 79 µM (inactive). With `COc1ccc(C(=O)COC(=O)c2ccc([N+](=O)[O-])s2)cc1OC` the IC50 was > 79 µM (inactive). `COc1ccc(NC(=O)c2oc3ccc(S(=O)(=O)N4CCOCC4)cc3c2C)cc1` was tested, and the IC50 was > 79 µM (inactive). For `C/C(=N\NC(=O)CCCNc1ccc(C)cc1)c1ccccn1`, the IC50 was > 79 µM (inactive). In the case of `Cc1ccc(-c2n[nH]c(=O)c3ccccc23)cc1S(=O)(=O)NCC1CCCO1` (stereo not drawn), the IC50 is reported as > 79 µM (inactive). For `CC1Cc2ccccc2N1C(=O)Cn1nc(C(=O)O)c2ccccc2c1=O` (stereo not drawn), the IC50 was > 79 µM (inactive). In the case of `COc1cc(/C=C/c2nc3ccccc3c(=O)n2-c2ccc(O)cc2)ccc1O`, the IC50 is reported as 9.14 µM. `CN(C(=O)CSc1nc2c(c(=O)[nH]1)CCCC2)C1CCCCC1` was tested, and the IC50 was > 79 µM (inactive). With `O=C1Nc2cnc(Cl)nc2Nc2ccccc21` the IC50 was > 79 µM (inactive). With `CC(=O)Nc1cccc(NC(=O)c2cc(-c3cccnc3)nc3ccc(Cl)cc23)c1` the IC50 was > 79 µM (inactive).
